According to publication PMC10959927, “Platinum iodido drugs show potential anti-tumor activity, affecting cancer cell metabolism and inducing ROS and senescence in gastrointestinal cancer cells” (Communications Biology, 2024):
Several values for one entry are separate records, joined by “and”; a condition that tells them apart may be missing. Equal values may be shown once.

Tests used:
Assay type in all cases: cell-based, human
PANC1 cells [1] = assay: Western blotting (p-p53, p-JNK, p-p38, p-ERK, p-CHK1/2, Mcl1, BID, BAX); conditions: for fold change p-ERK vs Tubulin / fold change p-JNK vs Tubulin / fold change p-p38 vs Tubulin / fold change p-p53 vs Tubulin: PANC1, Fig. 4A, replicate values
Method: (§1) Total protein extracts were obtained by adding the lysis buffer: 25 mM HEPES pH 7.5, 0.3 M NaCl, 1.5 mM MgCl2, 0.2 mM EDTA, 0.5 mM DTT, 20 mM β-glicerophosphate, 0.1 mM Na3VO4, 0.1% triton X-100; in the presence of protease inhibitors. Twenty μg of protein per sample were loaded and resolved using 8%, 10% or 15% SDS-PAGE polyacrylamide gels, and then transferred onto PVDF membranes, followed by immunodetection using appropriate antibodies, purchased from Santa Cruz Technology: Mcl-1 (sc-819), Cell Signaling Technology: BIM, BID, BAX (#9942), p-p38 (1:2000, #4631), p-p53^ser15 (#9284), p-ERK1/2 (1:2000, #9106), p-CHK1^ser345 and p-CHK2^ser19 (#9931), Promega Corporation-Spain: p-JNK (#V7932), or Sigma-Aldrich: α-tubulin (1:10000, #TP026). Unless indicated, all antibodies were diluted 1:1000. Secondary antibodies conjugated with horseradish peroxidase were purchased from BioRad, and chemiluminescence detection was performed using ECL (Santa Cruz Biotechnology).

AGS cells [2] = assay: as above; conditions: for fold change p-ERK vs Tubulin / fold change p-JNK vs Tubulin / fold change p-p38 vs Tubulin / fold change p-p53 vs Tubulin: Fig. 4A, replicate values; for fold change BAX vs Tubulin / fold change MCL1 vs Tubulin / fold change BID full length vs Tubulin: Fig. S3B
Method: as §1

PANC1 cells [3] = assay: Flow cytometry mitochondrial mass and membrane potential (MitoTracker Green / CMXRos)
Method: (§2) We used flow cytometry to study the mitochondrial mass, mitochondrial membrane potential (ΔΨm) and cellular senescence of untreated and treated cells. Cells (5 × 10^4) were seeded in 24-multiwell dishes and cultured overnight. […] Cells were tripsinized, stained with Mitoprobes and resuspended in Flow buffer [1X PBS; 3% Fetal Bovine Serum (v/v); 3 mM EDTA (v/v)] before analysis with a 4-laser Attune NxT Acoustic Cytometer (Thermo Fisher Scientific). For Mitoprobe assays, […] DAPI (Sigma) was used to exclude dead cells. Data were analyzed with FlowJo 9.3 software (Tree Star Inc., Ashland, OR). For mitochondrial mass and ΔΨm measurement, Mitotracker Green (MTGreen, M7514, Invitrogen) and Mitotracker Red CMXRos (CMXROS, M7512, Invitrogen) were used, respectively. Probes were incubated with cells for 30 min at 37 °C at a concentration of 100 nM (MTGreen) and 20 nM (CMXROS), and fluorescence was detected using the filters (Ex488nm/Em530/30) BL1 and (Ex561nm/Em585/16) YL1, respectively. To determine mitochondria functionality, the ratio between ΔΨm (MitoTracker Red CMXRos) versus Mit. Mass (MitoTracker Green) was calculated. The gating strategy used in all the Flow Cytometry experiments is reflected in Fig.S10.

AGS cells [4] = assay: as above
Method: as §2

MKN45 cells = assay: as above
Method: as §2

[5] = PANC1, fold change vs C, replicates
[6] = MKN45, fold change vs C, replicates

## [NH2][Pt]([NH2])([Cl])[Cl] [CDDP, cisplatin, reference compound]
PANC1 cells [1]; PANC1, IC50, 1, 3, 6 or 24 h
  phosphorylation of CHK1/2 (DDR pathway, western blot): induced the phosphorylation
PANC1 cells [1]; PANC1, time 1 h, Fig. S3B
  fold change BAX vs Tubulin: 1.6915 fold change and 0.9781 fold change and 1.332 fold change
  fold change MCL1 vs Tubulin: 0.9288 fold change and 1.014 fold change and 1.02 fold change
PANC1 cells [1]; PANC1, time 3 h, Fig. S3B
  fold change BAX vs Tubulin: 1.86 fold change and 1.118 fold change and 1.518 fold change
  fold change MCL1 vs Tubulin: 1.904 fold change and 2.322 fold change and 1.672 fold change
PANC1 cells [1]; PANC1, time 6 h, Fig. S3B
  fold change BAX vs Tubulin: 1.424 fold change and 1.3785 fold change and 1.29 fold change
  fold change MCL1 vs Tubulin: 1.358 fold change and 1.631 fold change and 1.901 fold change
PANC1 cells [1]; PANC1, time 24 h, Fig. S3B
  fold change BAX vs Tubulin: 1.469 fold change and 1.617 fold change and 1.511 fold change
  fold change BID full length vs Tubulin: 1.745 fold change and 2.178 fold change and 1.991 fold change
  fold change MCL1 vs Tubulin: 1.279 fold change and 1.508 fold change and 1.299 fold change
PANC1 cells [1]; Time 1 h
  fold change p-ERK vs Tubulin: 1.164 fold change and 1.13 fold change and 1.21 fold change
  fold change p-JNK vs Tubulin: 1.373 fold change and 1.201 fold change and 1.17 fold change
  fold change p-p38 vs Tubulin: 1.546 fold change and 1.183 fold change and 0.9863 fold change
  fold change p-p53 vs Tubulin: 1.04 fold change and 1.08 fold change and 0.83 fold change
PANC1 cells [1]; Time 3 h
  fold change p-ERK vs Tubulin: 0.6555 fold change and 1.708 fold change and 1.33 fold change
  fold change p-p38 vs Tubulin: 0.9361 fold change and 0.959 fold change and 0.6722 fold change
  fold change p-p53 vs Tubulin: 1.501 fold change and 1.122 fold change and 1.403 fold change
PANC1 cells [1]; Time 6 h
  fold change p-ERK vs Tubulin: 0.4691 fold change and 2.127 fold change and 1.29 fold change
  fold change p-JNK vs Tubulin: 0.7555 fold change and 0.4269 fold change and 0.7284 fold change
  fold change p-p38 vs Tubulin: 0.8737 fold change and 0.5515 fold change and 0.5907 fold change
  fold change p-p53 vs Tubulin: 2.227 fold change and 1.131 fold change and 2.015 fold change
PANC1 cells [1]; Time 24 h
  fold change p-ERK vs Tubulin: 0.8571 fold change and 2.648 fold change and 1.55 fold change
  fold change p-JNK vs Tubulin: 0.8188 fold change and 0.748 fold change and 1.253 fold change
  fold change p-p38 vs Tubulin: 1.702 fold change and 0.3951 fold change and 0.5063 fold change
  fold change p-p53 vs Tubulin: 2.03 fold change and 4.05 fold change and 2.63 fold change
AGS cells [2]; IC50, 1, 3, 6 or 24 h
  phosphorylation of CHK1/2 (DDR pathway, western blot): induced the phosphorylation
AGS cells [2]; Time 1 h
  fold change p-ERK vs Tubulin: 0.9528 fold change and 0.9782 fold change and 0.8139 fold change
  fold change p-JNK vs Tubulin: 0.895 fold change and 1.558 fold change and 0.8178 fold change
  fold change p-p38 vs Tubulin: 1.508 fold change and 0.8638 fold change and 1.487 fold change
  fold change p-p53 vs Tubulin: 0.9865 fold change and 0.9436 fold change and 1.458 fold change
AGS cells [2]; Time 3 h
  fold change p-ERK vs Tubulin: 1.409 fold change and 0.9423 fold change and 1.158 fold change
  fold change p-JNK vs Tubulin: 1.014 fold change and 1.185 fold change and 0.899 fold change
  fold change p-p38 vs Tubulin: 1.39 fold change and 0.6346 fold change and 1.266 fold change
  fold change p-p53 vs Tubulin: 0.5865 fold change and 1.299 fold change and 1.138 fold change
AGS cells [2]; Time 6 h
  fold change p-ERK vs Tubulin: 2.441 fold change and 1.161 fold change and 1.546 fold change
  fold change p-JNK vs Tubulin: 1.257 fold change and 1.756 fold change and 0.7623 fold change
  fold change p-p38 vs Tubulin: 0.9545 fold change and 1.021 fold change and 0.8104 fold change
  fold change p-p53 vs Tubulin: 1.308 fold change and 1.189 fold change and 1.275 fold change
AGS cells [2]; Time 24 h
  fold change p-ERK vs Tubulin: 2.387 fold change and 2.45 fold change and 1.9989 fold change
  fold change p-JNK vs Tubulin: 1.302 fold change and 2.33 fold change and 0.8503 fold change
  fold change p-p38 vs Tubulin: 0.6414 fold change and 1.823 fold change and 1.149 fold change
  fold change p-p53 vs Tubulin: 3.183 fold change and 2.955 fold change and 1.906 fold change
AGS cells [2]; time 1 h
  fold change BAX vs Tubulin: 1.198 fold change and 1.173 fold change and 0.877 fold change
  fold change MCL1 vs Tubulin: 1.103 fold change and 0.99 fold change and 0.761 fold change
AGS cells [2]; time 3 h
  fold change BAX vs Tubulin: 0.789 fold change and 1.149 fold change and 1.345 fold change
  fold change MCL1 vs Tubulin: 0.575 fold change and 0.967 fold change and 0.513 fold change
AGS cells [2]; time 6 h
  fold change BAX vs Tubulin: 1.098 fold change and 1.54 fold change and 2.188 fold change
  fold change BID full length vs Tubulin: 0.649 fold change and 1.175 fold change and 0.953 fold change
  fold change MCL1 vs Tubulin: 1.101 fold change and 0.938 fold change and 0.603 fold change
AGS cells [2]; time 24 h
  fold change BID full length vs Tubulin: 1.562 fold change and 1.807 fold change and 1.427 fold change
  fold change MCL1 vs Tubulin: 0.943 fold change and 0.926 fold change and 0.668 fold change
PANC1 cells [3]; PANC1, IC50 doses 24 h, CMX-ROS/MitoGreen ratio vs untreated 1.0
  Fold change ΔΨm/MM: 0.48 and 0.57 and 0.56
PANC1 cells [3]; [5]
  Fold change %CMXROS, ΔΨm: 1.08 and 1.13
  Fold change %MTGreen, MM: 1.99 and 2.23 and 2.11
AGS cells [4]; IC50 doses 24 h, CMX-ROS/MitoGreen ratio vs untreated 1.0
  Fold change ΔΨm/MM: 1.12 and 0.8 and 0.61
AGS cells [4]; fold change vs C, replicates
  Fold change %CMXROS, ΔΨm: 0.87 and 0.86 and 0.72
  Fold change %MTGreen, MM: 0.78 and 0.73 and 0.76
MKN45 cells; MKN45, IC50 doses 24 h, CMX-ROS/MitoGreen ratio vs untreated 1.0
  Fold change ΔΨm/MM: 0.77 and 0.76
MKN45 cells; [6]
  Fold change %CMXROS, ΔΨm: 0.72 and 0.71
  Fold change %MTGreen, MM: 0.94 and 0.93
